This note sets out measurements from patent US20230192617A1, “AZABICYCLIC(THIO)AMIDES AS FUNGICIDAL COMPOUNDS” (Bayer CropScience Aktiengesellschaft, priority 2020, published 2023).

One data set deals with Pyrenophora teres. Briefly: B-10. Pyrenophora teres in vitro cell test. Format: cell-based. To be noted: 144 h, 20 ppm of active ingredient, 6 days incubation, liquid culture, absorbance, read-out: efficacy (inhibition of fungal growth). The gist of the method: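 Liquid-culture assay on a P. teres spore suspension with compounds added to the medium from DMSO solutions, final DMSO ≤1%. Mycelium growth read spectrometrically after 6 days. Inhibition calculated from absorbance against untreated control wells.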

Data set [1] deals with Colletotrichum lindemuthianum. The data set can be described thus: B-8. Colletotrichum lindemuthianum in vitro cell test. The note with it: 144 h, 20 ppm of active ingredient, 6 days incubation, liquid culture, absorbance, read-out: efficacy (inhibition of fungal growth). It counts as cell-based. The gist of the method: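 Spore suspension of C. lindemuthianum in liquid medium exposed to DMSO-solubilized compounds (final DMSO ≤1%) for 6 days. Mycelial growth read by absorbance, with inhibition calculated relative to compound-free control wells.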

Another data set concerns Alternaria alternata. Briefly: Alternaria alternata in vitro cell test. To be noted: 120 h, 20 ppm of active ingredient, liquid culture, 5 days incubation, spectrometric measurement of mycelium growth, read-out: efficacy (inhibition of fungal growth). It counts as cell-based. The gist of the method: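 Liquid culture assay in which A. alternata spores in medium received DMSO-solubilized compound (final DMSO ≤1%). After 5 days, mycelium growth was measured spectrometrically. Inhibition was calculated against fungicide-free control wells.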

A further data set relates to Sphaerotheca fuliginea. The data set can be described thus: In vivo preventive test on Sphaerotheca fuliginea (powdery mildew on cucurbits). The note with it: Podosphaera fuliginea, 192 h; 500 ppm of active ingredient; preventive spray on gherkin; evaluated 8 days after inoculation; read-out: efficacy. The gist of the method:
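Young gherkin plants were sprayed with compound in DMSO/acetone/Tween 80 diluted in water. They were inoculated 24 h later with a spore suspension of Sphaerotheca fuliginea. Plants were then kept for 8 days at 20 °C and 70–80% relative humidity.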

For a further data set, the system named is Septoria tritici. The data set can be described thus: B-9. Septoria tritici in vitro cell test. The note with it: Zymoseptoria tritici, 168 h; 20 ppm of active ingredient; 7 days incubation; liquid culture, absorbance; read-out: efficacy (inhibition of fungal growth). Format: cell-based. In short, it runs like this: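 Compounds from DMSO stocks (final DMSO ≤1%) were added to liquid medium containing S. tritici spores to test inhibition of germination and mycelial growth. After 7 days, mycelium growth was read spectrometrically and inhibition derived from absorbance versus fungicide-free control wells.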

A further data set has as its system Alternaria brassicae. The data set can be described thus: In vivo preventive test on Alternaria brassicae (leaf spot on radish or cabbage). The note with it: 500 ppm of active ingredient, preventive spray on radish or cabbage, evaluated 3 to 4 days after inoculation, read-out: efficacy. In short, it runs like this: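 Young radish or cabbage plants were sprayed with compound dissolved in DMSO/acetone/Tween 80 and diluted in water; controls received solvent only. Inoculation by spraying A. brassicae spore suspension 24 h later, then 3–4 days at 20 °C and 100% relative humidity.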

Another data set concerns Botrytis cinerea. The data set can be described thus: B-11. Botrytis cinerea in vitro cell test. Format: cell-based. To be noted: 144 h, 20 ppm of active ingredient, 6 days incubation, liquid culture, absorbance, read-out: efficacy (inhibition of fungal growth). In short, it runs like this:
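B. cinerea spores were grown in liquid culture with compound (DMSO ≤1% final). Mycelium growth was measured spectrometrically after 6 days, with inhibition taken as absorbance relative to untreated control wells.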

A short description of data set [2]: Measurement of Log P values by HPLC on reversed phase columns (EEC directive 79/831 Annex V.A8). To be noted: reversed phase HPLC column, method [a]: LC-UV, acidic range, 0.1% formic acid in water and acetonitrile as eluent. Format: physicochemical. In short, it runs like this: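 Reversed-phase HPLC with UV detection per EEC 79/831 Annex V.A8, linear 10–95% acetonitrile gradient. Aqueous eluent: 0.1% formic acid (acidic), 0.001 M ammonium acetate (neutral), or 0.1% phosphoric acid (acidic); multiple values in one method joined by "+".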

Take `O=C(NC[C@H](F)c1ccc(Cl)cc1Cl)c1c(Oc2cccc(C(F)(F)F)c2)cnc2ccoc12` (racemic) [I-067]: the inhibition (in general, the relative decrease from the control value, in per cent) at 20 ppm in the data set on Pyrenophora teres is 90 to 100%; in data set [1], 90 to 100%; in the data set on Alternaria alternata, 90 to 100%; with Septoria tritici it was 70 to 79%; with Botrytis cinerea, 90 to 100%. The pest or weed control at 500 ppm in the data set on Sphaerotheca fuliginea and in the data set on Alternaria brassicae was 90 to 100% in each case. In data set [2], the chromatographic logP – broadly, lipophilicity estimated from chromatographic retention – is 4.18.
In the case of `O=C(NC[C@H](F)c1ccc(Cl)cc1Cl)c1c(Oc2cccc(C3CC3)c2F)nnc2ccccc12` (racemic) [I-072], the inhibition at 20 ppm (with Pyrenophora teres; in data set [1]; in the data set on Alternaria alternata; in the data set on Septoria tritici; with Botrytis cinerea) was 90 to 100% throughout. In addition, the pest or weed control at 500 ppm in the data set with Sphaerotheca fuliginea and with Alternaria brassicae was 90 to 100% each time. Also, in data set [2], the chromatographic logP is 4.57.
As for `Cc1ccc([C@@H](F)CNC(=O)c2c(Oc3cccc(C(F)(F)F)c3)nnc3ccccc23)cc1C` (racemic) [I-084], the inhibition at 20 ppm (with Pyrenophora teres; in data set [1]; in the data set with Alternaria alternata; in the data set with Septoria tritici; in the data set on Botrytis cinerea) was 90 to 100% throughout. For the same molecule, the pest or weed control at 500 ppm in the data set on Sphaerotheca fuliginea is 80 to 89%; in the data set with Alternaria brassicae, 90 to 100%. In data set [2], this molecule had a chromatographic logP of 4.19.
Regarding `Cc1ccc(CCNC(=O)c2c(Oc3cccc(C4CC4)c3F)nnc3ccccc23)c(C)c1` [I-070], the inhibition at 20 ppm (with Pyrenophora teres; in data set [1]; in the data set on Alternaria alternata; with Septoria tritici; in the data set on Botrytis cinerea) was 90 to 100% throughout. The pest or weed control at 500 ppm in the data set on Sphaerotheca fuliginea and in the data set on Alternaria brassicae was 90 to 100% each time. In data set [2], the chromatographic logP came out at 4.42.
In the case of `Cc1ccc(C(F)(F)CNC(=O)c2c(Oc3cccc(C4CC4)c3F)nnc3ccccc23)c(C)c1` [I-071, 3-(3-cyclopropyl-2-fluoro-phenoxy)-N-[2-(2,4-dimethyl-phenyl)-2,2-difluoro-ethyl]cinnoline-4-carboxamide], the inhibition at 20 ppm in the data set on Pyrenophora teres fell in the range of 90 to 100%; in data set [1], 90 to 100%; in the data set with Alternaria alternata, 90 to 100%; with Septoria tritici, 80 to 89%; in the data set on Botrytis cinerea, 90 to 100%. Also, the pest or weed control at 500 ppm in the data set with Sphaerotheca fuliginea and with Alternaria brassicae was 90 to 100% each time. Further, the chromatographic logP in data set [2] is 4.54.
In the case of `O=C(NCC(F)c1ccc(Cl)cc1Cl)c1c(Oc2cccc(C(F)(F)F)c2)nnc2c1CCCC2` (stereo not shown) [I-118], the inhibition at 20 ppm (with Pyrenophora teres; in data set [1]; in the data set with Alternaria alternata; in the data set with Septoria tritici; in the data set on Botrytis cinerea) was 90 to 100% each time. Moreover, the pest or weed control at 500 ppm in the data set on Sphaerotheca fuliginea and in the data set with Alternaria brassicae was 90 to 100% in each case. Also, in data set [2], the chromatographic logP is 4.05.
`O=C(NCC(F)c1ccc(Cl)cc1Cl)c1c(Oc2cccc(C3CC3)c2)nnc2c1CCCC2` (stereo not shown) [I-119, 3-(3-cyclopropylphenoxy)-N-[2-(2,4-dichlorophenyl)-2-fluoro-ethyl]-5,6,7,8-tetrahydrocinnoline-4-carboxamide]: the inhibition at 20 ppm (in the data set on Pyrenophora teres; in data set [1]; with Alternaria alternata; with Septoria tritici; with Botrytis cinerea) was 90 to 100% in each case. Also, the pest or weed control at 500 ppm in the data set on Sphaerotheca fuliginea and in the data set on Alternaria brassicae was 90 to 100% throughout. In data set [2], this molecule came in with a chromatographic logP of 4.11.
Take `Cc1ccc(C(F)(F)CNC(=O)c2c(Oc3cccc(Cl)c3)nnc3c2CCCC3)c(C)c1` [I-121]: the inhibition at 20 ppm (with Pyrenophora teres; in data set [1]; with Alternaria alternata; in the data set with Septoria tritici; in the data set with Botrytis cinerea) was 90 to 100% in each case. In addition, the pest or weed control at 500 ppm in the data set on Sphaerotheca fuliginea and with Alternaria brassicae was 90 to 100% each time. In addition, the chromatographic logP in data set [2] was 3.89.
